Measured values as given in patent US6596712B2, “Treatment of carcinomas using squalamine in combination with other anti-cancer agents or modalities” (Genaera Corporation, priority 1996, dated 2003).

What was measured:
[1] = Squalamine toxicity test in rats; format: in vivo; settings: 20 mg/kg/day i.p. for more than 30 days; maintained up to 200 days
Procedure: A squalamine toxicity test was performed in another animal model. Conventional cytotoxic chemical compounds are quite toxic. […] For this reason, it is administered only one time to a patient. The use of BCNU is described on pages 304 and 305 of Calabresi in Medical Oncology, supra. In order to test the toxicity of squalamine, a group of rats was given a daily squalamine dose of 20 mg/kg/day (i.p.) for more than 30 days and maintained for up to 200 days following dosing.

LNCaP cells = assay: LNCaP cell growth in vitro ([3H]-thymidine incorporation); format: cell-based, human
Procedure: The anti-proliferative effect of squalamine was evaluated in tissue culture by both crystal violet staining and [^3H]-thymidine incorporation, on the LNCaP/C4-2 human prostate cancer progression model. Developed by applicants' laboratory, this lineage-derived cell line recapitulates the progression of human neoplastic prostate disease from an androgen-dependent and minimally metastatic condition (LNCaP cells) to an androgen-independent (defined as being able to proliferate in castrate hosts) and highly aggressive state (C4-2 subline).
In vitro experiments were also conducted with the LNCAP cell line in which cell proliferation as judged by [3H]-thymidine uptake was determined. LNCaP cells were maintained as previously described (cf. J. T. Hsieh et al., Cancer Research 53, 2852-2857 (1993)). Cells were exposed to 20 ng/mL vascular endothelial growth factor (VEGF), 20 μg/mL squalamine or a combination of VEGF and squalamine. […] As a consequence, the mechanism underlying the effectiveness of squalamine treatment of the LNCaP tumor in vivo may under certain conditions also involve direct inhibition of tumor cell growth and/or induction of tumor cell death.

[2] = system: Human androgen dependent LNCaP cells; assay: LNCaP xenograft with hormonal ablation (Example 7); format: in vivo, athymic mice
Procedure: Human androgen dependent LNCaP cells (2×10^6 cells/flank in both flanks) were implanted subcutaneously with an equal volume of Matrigel™ in forty athymic mice. These animals were followed with periodic bleedings until serum human PSA levels exceeded 100 ng/mL and tumor volume measurements exceeded 1000 mm^3 (approximately six weeks after implantation). All animals were then surgically castrated and were randomized into five treatment groups with 8-10 animals per group. One group of animals was not treated further (controls), while a second group immediately began daily intraperitoneal injection of 20 mg/kg/day squalamine (five days per week with a two day respite). A third group of animals began to receive squalamine (20 mg/kg/day squalamine, five days per week with a two day respite) when their serum human PSA levels reached values of 4-10 ng/mL. A fourth group of mice began squalamine treatment (20 mg/kg/day squalamine, five days per week with a two day respite)when serum human PSA values reached 20-40 ng/mL, and a fifth group began squalamine treatment when serum human PSA levels reached 100 ng/mL.
Similarly, the serum human PSA levels fell to undetectable levels with a nadir at two weeks after castration, but by week three the serum human PSA levels began to rise in all control animals. […] For animals treated with squalamine concomitant with the fall in human PSA after castration, six of ten animals were treated for 6-10 weeks. Three mice in this group never experienced a post-orchiectomy PSA nadir, and one mouse experienced an early death of unknown etiology. The remaining six animals in this group experienced a post-orchiectomy PSA nadir of less than 1 ng/mL and maintained this negligible level for the duration of squalamine therapy.
Tissue histology was carried out on the tumor masses (or the site of tumor implantation, in the instance of the animals which underwent successful squalamine treatment) to examine the distribution of integrins in these tissues. […] Thus, part of the mechanism by which squalamine successfully alters LNCaP tumor growth is by interfering with cellular integrin expression that is associated with tumor aggressiveness.

[3] = system: Syngeneic mammary carcinoma MCA-4 tumor cells; assay: MCA-4 mammary carcinoma tumor growth delay with radiation; format: in vivo, C3Hf/Kam male mice
Procedure: Syngeneic mammary carcinoma MCA-4 tumor cells (5×10^5) were injected intramuscularly into the right legs of C3Hf/Kam male mice (4 months of age). When the tumors reached 6 mm in diameter, the mice were randomly assigned to receive: (a) no treatment, (b) squalamine alone (20 mg/kg/day b.i.d. for 11-14 days), (c) 15 Gy of gamma irradiation, or (d) squalamine plus 15 Gy of gamma rays. Tumor growth was followed until tumors reached at least 12 mm in diameter. The effect of squalamine on tumor radioresponse was determined by absolute and normalized tumor growth delays (AGD and NGD). AGD is defined as the time in days for tumors treated with radiation (or squalamine) to grow from 8 to 12 mm minus the time in days for untreated tumors to grow from 8-12 mm. NGD is defined as the time in days for tumors treated with both squalamine and radiation to grow from 8 to 12 mm minus the time in days for tumors treated with squalamine only to grow from 8 to 12 mm. An enhancement factor (EF) was determined as the ratio of NGD to AGD. The EF for squalamine with 15 Gy gamma rays calculated from the observed times for tumor growth (Table 8) is >1.5.

[4] = tissue histology after successful squalamine treatment

## CC(C)[C@@H](CC[C@@H](C)[C@H]1CC[C@H]2[C@@H]3[C@H](O)C[C@H]4C[C@@H](NCCCNCCCCN)CC[C@]4(C)[C@H]3CC[C@]12C)OS(=O)(=O)O [Squalamine, squalamine]
[1]
  toxicity, health of animals: remained healthy
LNCaP cells; 20 ng/mL VEGF and/or 20 μg/mL squalamine, 24 hours, media containing serum
  Percent of Control [3H]-Thymidine Uptake: 75%
LNCaP cells; media containing serum, 20 ng/mL VEGF or 20 μg/mL squalamine
  effect on cell growth alone: minimal effects on cell growth
LNCaP cells; no exogenous VEGF
  growth of LNCaP cells, squalamine by itself: nominal effect
LNCaP cells; with addition of exogenous VEGF
  LNCaP proliferation: inhibited
[2]; 20 mg/kg/day i.p. five days per week, 6-10 weeks from castration, six animals
  post-orchiectomy PSA nadir: less than 1 ng/mL
[2]; 20 mg/kg/day i.p. from castration
  tumor masses: eventually disappeared in all six animals
[2]; [4]
  expression of the integrin α6β4: increase
  expression of the integrin αvβ3: reduction in the expression
[3]; absolute tumor growth delay
  AGD: 0 days
[3]; squalamine 20 mg/kg/day b.i.d. for 11-14 days, 15 Gy gamma irradiation
  Time to Grow From 8 to 12 mm: 6 days
